# Measured values taken from patent EP0755932A1, “(Thiophen-2-yl)piperidin or tetrahydropyridin-azabicyclocarboxamides” (AMERICAN HOME PRODUCTS CORPORATION, priority 1995, dated 1997).
# pIC50: −log10 of the molar value.
# Molecular target: T1, 5-HT1A serotonin receptor (Rattus norvegicus, UniProt P19327)
# T1 construct: from tissue; host or cells: rat brain membranes (inferred from the cited Hall et al. procedure)
# T1 sequence (P19327 1-422): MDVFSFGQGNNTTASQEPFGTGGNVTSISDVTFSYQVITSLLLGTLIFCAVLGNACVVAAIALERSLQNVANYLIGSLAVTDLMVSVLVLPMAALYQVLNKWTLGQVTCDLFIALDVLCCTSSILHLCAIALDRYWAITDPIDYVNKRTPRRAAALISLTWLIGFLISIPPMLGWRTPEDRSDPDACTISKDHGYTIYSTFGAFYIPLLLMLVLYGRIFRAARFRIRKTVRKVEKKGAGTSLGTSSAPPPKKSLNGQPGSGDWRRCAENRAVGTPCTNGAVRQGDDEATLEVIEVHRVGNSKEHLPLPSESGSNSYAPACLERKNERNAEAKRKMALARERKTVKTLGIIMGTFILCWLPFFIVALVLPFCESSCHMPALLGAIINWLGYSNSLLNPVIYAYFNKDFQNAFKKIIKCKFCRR
# Experiment: Displacement of [3H] 8-OHDPAT from the 5-HT1A serotonin receptor (procedure of Hall et al.)
# Type: binding
# Text: 8-OHDPAT (dipropylaminotetralin) from the 5-HT1A serotonin receptor following the procedure of Hall et al., J. Neurochem. 44, 1685 (1985).
row,Compound,pIC50
1,"COc1ccsc1C1(O)CCN(CC[C@@H](C(=O)N2C3CCCC2CC3)c2ccccc2)CC1 [Example 1, (R)-1-(8-Aza-bicyclo[3.2.1.]oct-8-yl)-4-[4-hvdroxy-4-(3-methoxythiophen-2-yl)-piperidin-1-yl]-2-phenylbutan-1-one]",6.03
2,"COc1ccsc1C1=CCN(CC[C@@H](C(=O)N2C3CCCC2CC3)c2ccccc2)CC1 [Example 2, (R)-1-(8-Aza-bicyclo[3.2.1.]oct-8-yl)4-[4-(3-methoxythiophen-2-yl)-1,2,3,6-tetrahydropyridin-1-yl]-2-phenylbutan-1-one]",9.05
